For data set [1], the system named is HEp-2. The data set is described as follows: Antiviral activity against respiratory syncytial virus in HEp-2 human […] epithelial carcinoma cell line. Type of data set: functional, cell-based.
Data set [2] deals with HEp-2. The data set can be described thus: Cytotoxic activity against uninfected HEp-2 human […] epithelial carcinoma cell line. Type of data set: functional.
Data set [3] is described as follows: Therapeutic index expressed as the ratio between CC50 and EC50. Type of data set: cell-based. Conditions: human, HEp-2 cells; read-out: Therapeutic index.

The results in this text go back to ChEMBL document CHEMBL1147583, “Respiratory syncytial virus inhibitors. Part 2: Benzimidazol-2-one derivatives” (Bioorg Med Chem Lett, 2004).

In data set [1], `CC(C)CCn1c(Cn2c(=O)n(CCCCCC#N)c3ccccc32)nc2ccccc21` returned a half-maximal effective concentration (EC50) of 25 nM. The compound further displayed a CC50 in data set [2] of 13400 nM. The selectivity ratio in data set [3] was 536.

`CC(C)n1c(=O)n(Cc2nc3ccccc3n2CCCCCCC#N)c2ccccc21` yielded an EC50 in data set [1] of 5 nM. The compound also gave a CC50 in data set [2] of over 189000 nM. Also, in data set [3], the selectivity ratio was over 37800.

In the case of `CCNC(=O)n1c(=O)n(Cc2nc3ccccc3n2CCC(C)C)c2ccccc21`, the midpoint of the response in data set [1], the EC50, lay at 52 nM. This compound also came in with a CC50 in data set [2] of 18700 nM. In addition, in data set [3], the selectivity ratio came out at 359.

Turning to `CS(=O)(=O)CCCn1c(Cn2c(O)nc3ccccc32)nc2ccccc21`, the EC50 in data set [1] turned out to be 1490 nM. For the same compound, in data set [2], the 50% cytotoxic concentration (CC50) stood at 216000 nM. For the same compound, in data set [3], the selectivity ratio stood at 144.

As to `C=C(C)n1c(=O)n(Cc2nc3ccccc3n2CCC(C)=O)c2ccccc21`, the concentration for a half-maximal effect (EC50) in data set [1] stood at 5 nM. The compound further gave a CC50 in data set [2] of 245000 nM. Moreover, the selectivity ratio in data set [3] turned out to be 48900.

`CC(C)CCn1c(Cn2c(=O)n(Cc3ccc(O)cc3)c3ccccc32)nc2ccccc21` had an EC50 in data set [1] of 18 nM. The compound also yielded a CC50 in data set [2] of 59900 nM. In addition, the selectivity ratio in data set [3] worked out at 3330.

As for `C=C(C)n1c(=O)n(Cc2nc3ccccc3n2CCCC#N)c2ccccc21`, in data set [1], the midpoint of the response, the EC50, lay at 5 nM.

Compound `CC(C)n1c(=O)n(Cc2nc3ccccc3n2CCC#N)c2ccccc21` returned an EC50 in data set [1] of 8 nM. It took 73500 nM to reach half-maximal cytotoxicity in data set [2] (CC50). In addition, the selectivity ratio in data set [3] stood at 9190.

In data set [1], `CC(C)CCn1c(Cn2c(=O)n(CCCC#N)c3ccccc32)nc2ccccc21` showed an EC50 of 40 nM. In data set [2], this compound returned a CC50 of 59600 nM. For the same compound, in data set [3], the selectivity ratio came to 1490.

With `CCn1c(=O)n(Cc2nc3ccccc3n2CCCO)c2ccccc21`, in data set [1], the response was half-maximal at 10 nM (EC50). In data set [2], this compound had a CC50 of 179000 nM. The selectivity ratio in data set [3] was 17900.

The compound `CS(=O)(=O)CCCn1c(Cn2c(=O)n(CCCCC#N)c3ccccc32)nc2ccccc21` yielded an EC50 in data set [1] of 71 nM. In data set [2], this compound yielded a 50% cytotoxic concentration (CC50) of over 214000 nM. Moreover, the selectivity ratio in data set [3] is over 3020.

As to `CCn1c(=O)n(Cc2nc3ccccc3n2CC(=O)c2ccccc2)c2ccccc21`, the EC50 in data set [1] was 112 nM. This compound also registered a CC50 in data set [2] of 27100 nM. Moreover, the selectivity ratio in data set [3] is 241.

Consider `C=C(C)n1c(=O)n(Cc2nc3ccccc3n2CCCS(C)(=O)=O)c2ccccc21`, for which the response in data set [1] was half-maximal at 30 nM (EC50). In addition, in data set [2], it took 123000 nM to reach half-maximal cytotoxicity (CC50). In addition, the selectivity ratio in data set [3] stood at 4110.

For the compound `CCn1c(=O)n(Cc2nc3ccccc3n2CCC(C)C)c2ccccc21`, the EC50 in data set [1] came to 11 nM. The same compound registered a CC50 in data set [2] of 18600 nM. Besides, the selectivity ratio in data set [3] is 1690.

In data set [1], `C=C(C)n1c(=O)n(Cc2nc3ccccc3n2CCC(C)O)c2ccccc21` (stereo not given) gave a concentration giving a half-maximal response (EC50) of 28 nM. This compound also registered a CC50 in data set [2] of 172000 nM. In data set [3], the selectivity ratio is 6130.

In turn, `N#CCCCCn1c(=O)n(Cc2nc3ccccc3n2CCCC#N)c2ccccc21` registered an EC50 in data set [1] of 25 nM. Further, the CC50 in data set [2] was over 242000 nM. The selectivity ratio in data set [3] is over 9090.

In the case of `CC(C)CCn1c(Cn2c(=O)n(Cc3ccc(S(C)(=O)=O)cc3)c3ccccc32)nc2ccccc21`, the concentration giving a half-maximal response (EC50) in data set [1] came out at 9 nM. Also, the CC50 in data set [2] is 7500 nM. Also, in data set [3], the selectivity ratio came to 833.

As for `C=C(C)n1c(=O)n(Cc2nc3ccccc3n2CCCCC#N)c2ccccc21`, the EC50 in data set [1] was found to be 27 nM. The CC50 in data set [2] is 193000 nM. Further, in data set [3], the selectivity ratio was determined as 7140.

In data set [1], `CC(C)CCn1c(Cn2c(=O)n(S(=O)(=O)C(C)C)c3ccccc32)nc2ccccc21` gave an EC50 of 65 nM. In data set [2], this compound came in with a half-maximal cytotoxic concentration (CC50) of 16900 nM. Also, the selectivity ratio in data set [3] amounted to 260.

In data set [1], `CC(C)CCn1c(Cn2c(=O)n(S(C)(=O)=O)c3ccccc32)nc2ccccc21` registered an EC50 of 7 nM. This compound registered a CC50 in data set [2] of 16300 nM. For the same compound, the selectivity ratio in data set [3] worked out at 2330.

On to `CC(C)CCn1c(Cn2c(=O)n(CC#N)c3ccccc32)nc2ccccc21`, for which the EC50 in data set [1] turned out to be 28 nM. This compound had a CC50 in data set [2] of 46800 nM. The selectivity ratio in data set [3] came to 1670.

As to `CC(C)CCn1c(Cn2c(=O)n(Cc3cc(I)c(O)c(I)c3)c3ccccc32)nc2ccccc21`, in data set [1], the EC50 was 686 nM. In data set [2], the CC50 was over 144000 nM. For the same compound, the selectivity ratio in data set [3] is over 209.

`N#CCCn1c(Cn2c(O)nc3ccccc32)nc2ccccc21`: in data set [1], the concentration giving a half-maximal response (EC50) amounted to 99 nM. The compound further displayed a half-maximal cytotoxic concentration (CC50) in data set [2] of over 310000 nM. Besides, the selectivity ratio in data set [3] was over 3130.

The compound `C=C(C)n1c(=O)n(Cc2nc3ccccc3n2CCC#N)c2ccccc21` came in with an EC50 in data set [1] of 15 nM. The compound also showed a CC50 in data set [2] of 79600 nM. Moreover, in data set [3], the selectivity ratio was found to be 5310.

As for `C=CCn1c(=O)n(Cc2nc3ccccc3n2CCC(C)C)c2ccccc21`, the EC50 in data set [1] was determined as 16 nM. This compound displayed a CC50 in data set [2] of 12800 nM. The selectivity ratio in data set [3] was found to be 800.

As for `C=C(C)n1c(=O)n(Cc2nc3ccccc3n2CCCCO)c2ccccc21`, in data set [1], the 50% effective concentration (EC50) amounted to 4 nM. In data set [2], the CC50 is 171000 nM. For the same compound, the selectivity ratio in data set [3] amounted to 42700.

In data set [1], `CC(C)CCn1c(Cn2c(=O)n(C(=O)Nc3ccccc3)c3ccccc32)nc2ccccc21` came in with an EC50 of 41 nM. This compound also showed a CC50 in data set [2] of 21600 nM. The selectivity ratio in data set [3] turned out to be 526.

On to `OCCCCn1c(Cn2c(O)nc3ccccc32)nc2ccccc21`, for which a half-maximal response in data set [1] (EC50) required 173 nM. Further, the CC50 in data set [2] was over 168000 nM. Moreover, in data set [3], the selectivity ratio is over 971.

Compound `CC(C)n1c(=O)n(Cc2nc3ccccc3n2CCCCO)c2ccccc21` registered an EC50 in data set [1] of 11 nM. The compound also registered a CC50 in data set [2] of 68300 nM. In data set [3], the selectivity ratio was 6210.

Take `CC(C)CCn1c(Cn2c(=O)n(Cc3ccc(S(=O)(=O)N(C)C)cc3)c3ccccc32)nc2ccccc21`: in data set [1], the EC50 stood at 4 nM. In data set [2], this compound returned a CC50 of over 153000 nM. Further, the selectivity ratio in data set [3] was over 38200.

`C=C(C)n1c(=O)n(Cc2nc3ccccc3n2CCCCCCO)c2ccccc21` gave a concentration for a half-maximal effect (EC50) in data set [1] of 114 nM. For the same compound, in data set [2], the half-maximal cytotoxic concentration (CC50) was over 247000 nM. The selectivity ratio in data set [3] is over 2170.

In data set [1], `CC(C)CCn1c(Cn2c(=O)n(CCCCC#N)c3ccccc32)nc2ccccc21` displayed an EC50 of 35 nM. In data set [2], this compound displayed a CC50 of 15000 nM. In data set [3], the selectivity ratio came to 428.

As to `CC1(CCn2c(Cn3c(=O)n(Cc4ccc(O)cc4)c4ccccc43)nc3ccccc32)N=N1`, in data set [1], the response was half-maximal at 4 nM (EC50). Moreover, the CC50 in data set [2] is over 220000 nM. Also, the selectivity ratio in data set [3] is over 28000.

Consider `CC(=O)CCn1c(Cn2c(O)nc3ccccc32)nc2ccccc21`, for which the midpoint of the response in data set [1], the EC50, lay at 191 nM. Also, the CC50 in data set [2] worked out at 299000 nM. The selectivity ratio in data set [3] was found to be 1560.

In data set [1], `CC(C)CCn1c(Cn2c(=O)n(C(N)=O)c3ccccc32)nc2ccccc21` gave an EC50 of 50 nM. This compound also had a CC50 in data set [2] of 134000 nM. Besides, in data set [3], the selectivity ratio stood at 2670.

`CS(=O)(=O)CCCn1c(Cn2c(=O)n(CCCCO)c3ccccc32)nc2ccccc21`: the EC50 in data set [1] amounted to 92 nM. This compound registered a CC50 in data set [2] of over 229000 nM. The selectivity ratio in data set [3] was over 2490.

Take `C=C(C)n1c(=O)n(Cc2nc3ccccc3n2CCC(C)C)c2ccccc21`: the EC50 in data set [1] stood at 4 nM. Also, half-maximal cytotoxicity in data set [2] (CC50) was put at 24700 nM. Moreover, the selectivity ratio in data set [3] came out at 6180.

The compound `C=C(C)n1c(=O)n(Cc2nc3ccccc3n2CCCCCCC#N)c2ccccc21` yielded an EC50 in data set [1] of 6 nM. In data set [2], this compound yielded a CC50 of 36000 nM. Also, the selectivity ratio in data set [3] was over 6000.

Take `N#CCCn1c(Cn2c(=O)n(-c3ccccc3)c3ccccc32)nc2ccccc21`: the EC50 in data set [1] worked out at 5 nM. Besides, in data set [2], the CC50 stood at 87000 nM. For the same compound, the selectivity ratio in data set [3] turned out to be 17400.

Usually EC50 stands for the concentration that produces a half-maximal response. By CC50 is commonly meant the concentration that lowers cell viability or growth by half. Read a low CC50 as harm at low concentration.
